Laboratory results reported in patent US9708318B2, “Bicyclic heterocycles as FGFR4 inhibitors” (Incyte Corporation, priority 2015, dated 2017).
Like-named read-outs stand apart in the source and are kept apart here.

How the values were obtained:
[1] = molecular target: FGFR1 (Homo sapiens (Human), UniProt P11362); experiment: FGFR Enzymatic Assay (FRET peptide phosphorylation), FGFR1
[2] = molecular target: FGFR4 (Homo sapiens (Human), UniProt P22455); experiment: FGFR Enzymatic Assay (FRET peptide phosphorylation), FGFR4; format: biochemical; details: for FGFR1/FGFR4 IC50 ratio / FGFR2/FGFR4 IC50 ratio / FGFR3/FGFR4 IC50 ratio: FGFR4 selectivity
Chain of FGFR4 (P22455 22-802): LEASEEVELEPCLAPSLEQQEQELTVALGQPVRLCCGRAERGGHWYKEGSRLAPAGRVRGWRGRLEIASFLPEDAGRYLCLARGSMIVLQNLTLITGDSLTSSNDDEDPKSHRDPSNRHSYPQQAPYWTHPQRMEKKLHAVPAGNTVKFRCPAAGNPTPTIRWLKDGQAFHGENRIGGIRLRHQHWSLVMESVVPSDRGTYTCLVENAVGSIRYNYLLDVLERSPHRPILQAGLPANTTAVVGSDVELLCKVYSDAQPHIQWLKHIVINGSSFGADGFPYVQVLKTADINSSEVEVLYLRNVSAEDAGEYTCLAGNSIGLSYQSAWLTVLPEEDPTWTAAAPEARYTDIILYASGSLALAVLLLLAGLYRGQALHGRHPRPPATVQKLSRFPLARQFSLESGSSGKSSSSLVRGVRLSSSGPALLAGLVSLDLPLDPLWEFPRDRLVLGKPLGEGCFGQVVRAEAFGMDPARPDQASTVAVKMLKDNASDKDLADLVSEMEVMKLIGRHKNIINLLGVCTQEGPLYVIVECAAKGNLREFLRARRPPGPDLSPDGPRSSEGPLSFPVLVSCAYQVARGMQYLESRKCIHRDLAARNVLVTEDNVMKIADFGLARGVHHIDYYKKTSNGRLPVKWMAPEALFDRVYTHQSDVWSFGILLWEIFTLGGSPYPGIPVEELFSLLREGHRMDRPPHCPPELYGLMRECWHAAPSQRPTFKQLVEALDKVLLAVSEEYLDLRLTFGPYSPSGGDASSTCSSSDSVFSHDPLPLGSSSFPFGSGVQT
Method: (§1) The inhibitor potency of the exemplified compounds was measured in an enzyme assay that measures peptide phosphorylation using FRET measurements to detect product formation. Inhibitors were serially diluted in DMSO and a volume of 0.5 μL was transferred to the wells of a 384-well plate.
(§2) The enzymes were purchased from Millipore or Invitrogen.
(§3) GraphPad prism3 was used to analyze the data.

[3] = molecular target: FGFR2 (Homo sapiens (Human), UniProt P21802); experiment: FGFR Enzymatic Assay (FRET peptide phosphorylation), FGFR2; format: biochemical
Chain of FGFR2 (P21802 22-821): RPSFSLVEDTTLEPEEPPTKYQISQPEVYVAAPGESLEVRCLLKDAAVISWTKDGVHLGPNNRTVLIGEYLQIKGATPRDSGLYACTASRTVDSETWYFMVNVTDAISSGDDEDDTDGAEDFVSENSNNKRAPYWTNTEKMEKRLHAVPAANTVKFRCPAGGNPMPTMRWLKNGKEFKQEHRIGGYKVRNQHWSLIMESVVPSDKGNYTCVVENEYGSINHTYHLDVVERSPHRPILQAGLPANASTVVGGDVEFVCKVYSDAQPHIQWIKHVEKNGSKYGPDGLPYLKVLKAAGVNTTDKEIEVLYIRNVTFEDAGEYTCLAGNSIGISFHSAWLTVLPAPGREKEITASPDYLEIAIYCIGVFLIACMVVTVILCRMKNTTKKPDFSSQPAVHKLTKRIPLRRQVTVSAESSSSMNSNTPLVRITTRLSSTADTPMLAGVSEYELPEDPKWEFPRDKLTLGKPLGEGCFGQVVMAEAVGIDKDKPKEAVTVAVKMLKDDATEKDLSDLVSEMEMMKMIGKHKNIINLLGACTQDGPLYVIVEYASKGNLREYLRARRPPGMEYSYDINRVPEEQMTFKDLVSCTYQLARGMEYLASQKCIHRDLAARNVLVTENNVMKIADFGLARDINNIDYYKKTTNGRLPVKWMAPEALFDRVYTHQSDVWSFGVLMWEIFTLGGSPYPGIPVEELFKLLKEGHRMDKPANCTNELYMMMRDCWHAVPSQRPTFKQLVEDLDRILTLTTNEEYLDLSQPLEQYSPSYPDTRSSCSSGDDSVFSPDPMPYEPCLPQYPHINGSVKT
Method: as §1, §2, §3

[4] = molecular target: FGFR3 enzyme (Homo sapiens (Human), UniProt P22607); experiment: FGFR Enzymatic Assay (FRET peptide phosphorylation), FGFR3; format: biochemical; details: for FGFR1/FGFR3 IC50 ratio / FGFR4/FGFR3 IC50 ratio: FGFR3 selectivity; for IC50: read-out: FGFR3 IC50
Chain of FGFR3 enzyme (P22607 23-806): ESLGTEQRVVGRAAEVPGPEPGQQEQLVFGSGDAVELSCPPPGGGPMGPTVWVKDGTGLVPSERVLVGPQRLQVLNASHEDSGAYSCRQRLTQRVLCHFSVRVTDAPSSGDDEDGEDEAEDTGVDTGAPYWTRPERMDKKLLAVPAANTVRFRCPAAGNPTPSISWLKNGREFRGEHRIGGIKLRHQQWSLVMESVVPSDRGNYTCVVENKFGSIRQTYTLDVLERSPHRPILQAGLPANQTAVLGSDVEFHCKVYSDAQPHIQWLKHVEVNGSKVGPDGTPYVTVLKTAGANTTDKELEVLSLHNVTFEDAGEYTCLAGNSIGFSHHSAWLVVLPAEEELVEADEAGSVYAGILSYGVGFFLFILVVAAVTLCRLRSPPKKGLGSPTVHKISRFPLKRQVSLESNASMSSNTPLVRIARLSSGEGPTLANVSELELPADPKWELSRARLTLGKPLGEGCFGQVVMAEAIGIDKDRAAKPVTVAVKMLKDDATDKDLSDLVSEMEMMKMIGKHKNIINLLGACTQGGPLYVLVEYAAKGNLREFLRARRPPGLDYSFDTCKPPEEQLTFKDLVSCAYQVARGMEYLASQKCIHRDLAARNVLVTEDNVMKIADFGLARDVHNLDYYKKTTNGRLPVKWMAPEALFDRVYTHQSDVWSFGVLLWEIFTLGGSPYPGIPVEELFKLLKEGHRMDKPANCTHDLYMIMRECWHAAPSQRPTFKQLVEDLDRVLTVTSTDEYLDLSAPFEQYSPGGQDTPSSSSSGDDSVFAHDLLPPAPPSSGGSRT
Method: as §1, §3

[5] = read-out: FGFR1 IC50, pre-incubated for 5 to 10 minutes
[6] = read-out: FGFR1 IC50, pre-incubated for 4 hours
[7] = pre-incubated for 5 to 10 minutes
[8] = FGFR1 IC50 (nM), pre-incubated for 4 hours

Chain of FGFR1 (P11362 22-822): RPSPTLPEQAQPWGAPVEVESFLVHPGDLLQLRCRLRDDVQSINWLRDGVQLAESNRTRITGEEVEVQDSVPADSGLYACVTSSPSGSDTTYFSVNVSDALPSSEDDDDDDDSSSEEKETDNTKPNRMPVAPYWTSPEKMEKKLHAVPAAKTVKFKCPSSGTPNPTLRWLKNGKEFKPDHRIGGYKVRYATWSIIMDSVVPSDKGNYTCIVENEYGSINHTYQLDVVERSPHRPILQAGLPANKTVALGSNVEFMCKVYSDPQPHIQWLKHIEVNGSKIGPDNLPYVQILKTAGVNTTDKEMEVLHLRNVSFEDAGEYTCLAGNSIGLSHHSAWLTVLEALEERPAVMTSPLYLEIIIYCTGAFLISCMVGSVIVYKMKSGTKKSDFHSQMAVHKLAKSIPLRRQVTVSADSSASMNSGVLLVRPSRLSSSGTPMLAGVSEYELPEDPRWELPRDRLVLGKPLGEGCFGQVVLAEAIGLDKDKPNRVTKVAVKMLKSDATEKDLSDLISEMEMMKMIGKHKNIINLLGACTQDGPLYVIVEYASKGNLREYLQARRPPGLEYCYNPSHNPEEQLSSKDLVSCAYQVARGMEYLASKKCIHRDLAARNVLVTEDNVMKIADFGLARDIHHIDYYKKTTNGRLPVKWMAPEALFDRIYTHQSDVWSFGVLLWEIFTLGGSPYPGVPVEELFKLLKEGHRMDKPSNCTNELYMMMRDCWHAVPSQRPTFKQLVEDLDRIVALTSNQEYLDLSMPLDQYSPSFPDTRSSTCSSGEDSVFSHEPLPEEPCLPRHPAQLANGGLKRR

| SMILES | IC50 [1, 5] | IC50 [1, 6] | FGFR1/FGFR4 IC50 ratio [2, 7] | FGFR2/FGFR4 IC50 ratio [2, 7] | FGFR3/FGFR4 IC50 ratio [2, 7] | FGFR1/FGFR4 IC50 ratio ([2]; pre-incubated for 4 hours) | FGFR2/FGFR4 IC50 ratio ([2]; pre-incubated for 4 hours) | FGFR3/FGFR4 IC50 ratio ([2]; pre-incubated for 4 hours) | IC50 [2, 7] | IC50 ([2]; pre-incubated for 4 hours) | IC50 [3, 7] | IC50 ([3]; pre-incubated for 4 hours) | FGFR1/FGFR3 IC50 ratio ([4]; pre-incubated for 4 hours) | IC50 [4, 7] | IC50 ([4]; pre-incubated for 4 hours) | IC50 [1, 8] | FGFR4/FGFR3 IC50 ratio ([4]; pre-incubated for 4 hours) |
| --- | --- | --- | --- | --- | --- | --- | --- | --- | --- | --- | --- | --- | --- | --- | --- | --- | --- |
| COc1cc(OC)c(F)c(N2Cc3cnc(-c4cncc(S(=O)(=O)N5CCOCC5)c4)cc3C3(CC3)C2=O)c1F [Example 14, 2′-(2,6-difluoro-3,5-dimethoxyphenyl)-6′-(5-(morpholinosulfonyl)pyridin-3-yl)-1′H-spiro[cyclopropane-1,4′-[2,7]naphthyridin]-3′(2′H)-one] | > 200 nM | > 200 nM | >25 | >5 | >5 | >50 | >10 | >1 | < 10 nM | < 10 nM | 30 to 200 nM | 30 to 200 nM | >5 | 10 to 30 nM | 30 to 200 nM | – | – |
| COc1cc(OC)c(F)c(N2Cc3cnc(-c4cncc(CN5CCOCC5)c4)cc3C3(CC3)C2=O)c1F [Example 16, 2′-(2,6-difluoro-3,5-dimethoxyphenyl)-6′-(5-(morpholinomethyl)pyridin-3-yl)-1′H-spiro[cyclopropane-1,4′-[2,7]naphthyridin]-3′(2′H)-one] | > 200 nM | > 200 nM | >25 | >10 | >10 | >50 | >25 | >10 | < 10 nM | < 10 nM | 30 to 200 nM | 30 to 200 nM | >1 | 30 to 200 nM | 30 to 200 nM | – | – |
| COc1cc(OC)c(F)c(N2Cc3cnc(-c4ccccc4)cc3C3(CC3)C2=O)c1F [Example 17, 2′-(2,6-difluoro-3,5-dimethoxyphenyl)-6′-phenyl-1′H-spiro[cyclopropane-1,4′-[2,7]naphthyridin]-3′(2′H)-one] | – | > 200 nM | – | – | – | – | – | – | – | 10 to 30 nM | – | 30 to 200 nM | >10 | – | 10 to 30 nM | – | – |
| CNC(=O)c1ccc(-c2cc3c(cn2)CN(c2c(F)c(OC)cc(OC)c2F)C(=O)C32CC2)cn1 [Example 18, 5-(2′-(2,6-difluoro-3,5-dimethoxyphenyl)-3′-oxo-2′,3′-dihydro-1′H-spiro[cyclopropane-1,4′-[2,7]naphthyridine]-6′-yl)-N-methylpicolinamide] | – | – | – | – | – | – | – | – | – | 10 to 30 nM | – | < 10 nM | >5 | – | < 10 nM | 10 to 30 nM | – |
| CNC(=O)c1ccc(-c2cc3c(cn2)CN(c2c(F)c(OC)cc(OC)c2F)C(=O)C32CC2)cc1 [Example 19, 4-(2′-(2,6-difluoro-3,5-dimethoxyphenyl)-3′-oxo-2′,3′-dihydro-1′H-spiro[cyclopropane-1,4′-[2,7]naphthyridine]-6′-yl)-N-methylbenzamide] | – | – | – | – | – | – | – | – | – | < 10 nM | – | < 10 nM | >5 | – | < 10 nM | 10 to 30 nM | – |
| COc1cc(OC)c(F)c(N2Cc3cnc(-c4ccc(C#N)nc4)cc3C3(CC3)C2=O)c1F [Example 20, 5-(2′-(2,6-difluoro-3,5-dimethoxyphenyl)-3′-oxo-2′,3′-dihydro-1′H-spiro[cyclopropane-1,4′-[2,7]naphthyridine]-6′-yl)picolinonitrile] | – | – | – | – | – | – | – | – | – | 10 to 30 nM | – | 10 to 30 nM | >5 | – | 10 to 30 nM | 30 to 200 nM | – |
| COc1cc(OC)c(F)c(N2Cc3cnc(-c4cn(C)nc4C)cc3C3(CC3)C2=O)c1F [Example 21, 2′-(2,6-difluoro-3,5-dimethoxyphenyl)-6′-(1,3-dimethyl-1H-pyrazol-4-yl)-1′,2′-dihydro-3′H-spiro[cyclopropane-1,4′-[2,7]naphthyridin]-3′-one] | – | – | – | – | – | – | – | – | – | 10 to 30 nM | – | < 10 nM | >5 | – | < 10 nM | 10 to 30 nM | – |
| CCN1C(=O)N(c2c(F)c(OC)cc(OC)c2F)Cc2cnc(-c3ccccc3)cc21 [Example 22, 3-(2,6-difluoro-3,5-dimethoxyphenyl)-1-ethyl-7-phenyl-3,4-dihydropyrido[4,3-d]pyrimidin-2(1H)-one] | – | – | – | – | – | – | – | – | – | 10 to 30 nM | – | 10 to 30 nM | >5 | – | 10 to 30 nM | 30 to 200 nM | – |
| CCN1C(=O)N(c2c(F)c(OC)cc(OC)c2F)Cc2cnc(-c3cccnc3)cc21 [Example 23, 3-(2,6-difluoro-3,5-dimethoxyphenyl)-1-ethyl-7-(pyridin-3-yl)-3,4-dihydropyrido[4,3-d]pyrimidin-2(1H)-one] | – | – | – | – | – | – | – | – | – | < 10 nM | – | < 10 nM | >5 | – | < 10 nM | 30 to 200 nM | – |
| CCN1C(=O)N(c2c(F)c(OC)cc(OC)c2F)Cc2cnc(-c3ccc(CN4CC[C@H](C#N)C4)cc3)cc21 [Example 25, (S)-1-(4-(3-(2,6-difluoro-3,5-dimethoxyphenyl)-1-ethyl-2-oxo-1,2,3,4-tetrahydropyrido[4,3-d]pyrimidin-7-yl)benzyl)pyrrolidine-3-carbonitrile] | – | – | – | – | – | – | – | – | – | 10 to 30 nM | – | < 10 nM | >5 | – | < 10 nM | 10 to 30 nM | >5 |
| CCN1C(=O)N(c2c(F)c(OC)cc(OC)c2F)Cc2cnc(-c3ccc(C(C)(C)C#N)nc3)cc21 [Example 26, 2-(5-(3-(2,6-difluoro-3,5-dimethoxyphenyl)-1-ethyl-2-oxo-1,2,3,4-tetrahydropyrido[4,3-d]pyrimidin-7-yl)pyridin-2-yl)-2-methylpropanenitrile] | – | – | – | – | – | – | – | – | – | 10 to 30 nM | – | < 10 nM | >5 | – | < 10 nM | 10 to 30 nM | >5 |
| CCN1C(=O)N(c2cc(OC)cc(C(=O)NC)c2F)Cc2cnc(-c3ccc(C4(C#N)CCC4)nc3)cc21 [Example 28, 3-(7-(6-(1-cyanocyclobutyl)pyridin-3-yl)-1-ethyl-2-oxo-1,2-dihydropyrido[4,3-d]pyrimidin-3(4H)-yl)-2-fluoro-5-methoxy-N-methylbenzamide] | – | > 200 nM | – | – | – | – | – | – | – | > 200 nM | – | 30 to 200 nM | – | – | 30 to 200 nM | – | – |
| COc1cc(OC)c(F)c(N2Cc3cnc(-c4cn(C)nc4C)cc3N(CC3CC3)C2=O)c1F [Example 29, 1-(cyclopropylmethyl)-3-(2,6-difluoro-3,5-dimethoxyphenyl)-7-(1,3-dimethyl-1H-pyrazol-4-yl)-3,4-dihydropyrido[4,3-d]pyrimidin-2(1H)-one] | – | – | – | – | – | – | – | – | – | 10 to 30 nM | – | < 10 nM | >1 | – | < 10 nM | 10 to 30 nM | >5 |
| COc1cc(OC)c(F)c(N2Cc3cnc(-c4cn(C)nc4C)cc3N(C3CCCC3)C2=O)c1F [Example 32, 1-cyclopentyl-3-(2,6-difluoro-3,5-dimethoxyphenyl)-7-(1,3-dimethyl-1H-pyrazol-4-yl)-3,4-dihydropyrido[4,3-d]pyrimidin-2(1H)-one] | – | – | – | – | – | – | – | – | – | 10 to 30 nM | – | < 10 nM | >1 | – | < 10 nM | 10 to 30 nM | >5 |
| COc1cc(OC)c(F)c(N2Cc3cnc(-c4cn(C)nc4C)cc3N(C3CCOC3)C2=O)c1F (stereo not drawn) [Example 33, 3-(2,6-difluoro-3,5-dimethoxyphenyl)-7-(1,3-dimethyl-1H-pyrazol-4-yl)-1-(tetrahydrofuran-3-yl)-3,4-dihydropyrido[4,3-d]pyrimidin-2(1H)-one] | – | – | – | – | – | – | – | – | – | 30 to 200 nM | – | < 10 nM | >5 | – | < 10 nM | 30 to 200 nM | >5 |
| COc1cc(OC)c(F)c(N2Cc3cnc(-c4cn(C)nc4C)cc3N(Cc3ccc(F)cc3)C2=O)c1F [Example 34, 3-(2,6-difluoro-3,5-dimethoxyphenyl)-7-(1,3-dimethyl-1H-pyrazol-4-yl)-1-(4-fluorobenzyl)-3,4-dihydropyrido[4,3-d]pyrimidin-2(1H)-one] | – | – | – | – | – | – | – | – | – | 30 to 200 nM | – | 10 to 30 nM | >5 | – | < 10 nM | 30 to 200 nM | >10 |
